Data as given in the supplement of paper PMC10307832.

What was measured:
Assay in all cases: relative viability (nuclei count vs DMSO), 5 days (fraction); higher = more cells survive
[1] = compound: C[C@@H](N)c1ccc(C(=O)Nc2ccnc3[nH]ccc23)cc1 + CC(C)C[C@H](NC(=O)[C@H](Cc1ccccc1)NC(=O)c1cnccn1)B(O)O [Bortezomib] (partner 0.002 µM)
Outline: (§1)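 One day after seeding in 1536-well plates, lung cancer cell lines were dosed by pin tool. Dosing was either single-drug or a fixed anchor-drug dose plus five library-drug doses (not always all listed) in √10 steps. After 5 days, nuclei were stained in one fix-and-stain step and counted on 4× images, and relative viability is the nuclei count of treated wells over that of vehicle wells, given as the median of duplicate plates.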

[2] = compound: C[C@@H](N)c1ccc(C(=O)Nc2ccnc3[nH]ccc23)cc1 + Cc1nc(Nc2ncc(C(=O)Nc3c(C)cccc3Cl)s2)cc(N2CCN(CCO)CC2)n1 [Dasatinib] (partner 0.075 µM)
Outline: as §1

[3] = compound: C[C@@H](N)c1ccc(C(=O)Nc2ccnc3[nH]ccc23)cc1 + C[C@@H](Oc1cc(-c2cnn(C3CCNCC3)c2)cnc1N)c1c(Cl)ccc(F)c1Cl [Crizotinib] (partner 1 µM)
Outline: as §1

[4] = compound: C1CNCCC1C2=CC(=NN2)C3=CC=NC=C3 + CC(C)C[C@H](NC(=O)[C@H](Cc1ccccc1)NC(=O)c1cnccn1)B(O)O [Bortezomib] (partner 0.002 µM)
Outline: as §1

Cell Line	relative viability ([1]; first compound 0.04 µM)	relative viability ([1]; first compound 0.1265 µM)	relative viability ([1]; first compound 0.4 µM)	relative viability ([1]; first compound 1.265 µM)	relative viability ([1]; first compound 4 µM)	relative viability ([2]; first compound 0.04 µM)	relative viability ([2]; first compound 0.1265 µM)	relative viability ([2]; first compound 0.4 µM)	relative viability ([2]; first compound 4 µM)	relative viability ([3]; first compound 0.04 µM)	relative viability ([3]; first compound 0.1265 µM)	relative viability ([3]; first compound 0.4 µM)	relative viability ([3]; first compound 1.265 µM)	relative viability ([3]; first compound 4 µM)	relative viability ([4]; first compound 0.08 µM)	relative viability ([4]; first compound 0.8 µM)	relative viability ([4]; first compound 2.53 µM)	relative viability ([4]; first compound 8 µM)	relative viability ([2]; first compound 1.265 µM)
NCI-H596	1.05	0.856	1.14	1.23	1.26	0.671	0.537	0.493	0.557	1.04	0.899	0.934	0.809	0.93	1	1.06	1.12	1.16	
RERF-LC-KJ	1.19	1.21	1.2	1.24	1.12	0.871	0.911	0.88	0.709	0.808	0.893	0.788	0.858	0.684	1.09	1.22	1.16	1.12	0.778
NCI-H322M	1.4	1.38	1.34		1.72	0.242	0.253	0.266	0.318	0.881	0.944	1.09		1.08	1.27	1.19	1.39	1.29	
COR-L 105	0.826	0.732	0.791	0.469	0.649	0.247	0.317	0.372	0.216	0.721	0.747	0.652	0.537	0.408	0.737	0.746	1.01	0.851	0.241
NCI-H1993	1.19	1.13		0.943	1.15	0.745	0.754	0.856	0.8	0.867	0.743		0.877	0.878	1.02	0.999	1.21	1.34	0.917
NCI-H1437	0.623	0.53	0.563	0.427	0.555	0.451	0.292	0.372	0.393	0.915	0.851	0.943	1.01	0.792	0.495	0.607	0.552	0.462	0.471
NCI-H838	0.624	0.758	0.605	0.393	0.342	0.221	0.305	0.26	0.233	0.835	0.778	0.638	0.431	0.316	0.823	0.939	0.739	0.73	0.187
NCI-H1666	0.991	1.12	1.04	0.984	0.932	0.727	0.803	0.822	0.625	1.12	0.967	1.22	1.16	1.33	0.865	0.724	0.959	0.962	0.722
NCI-H1944						0.183	0.192	0.182	0.159	1.12	1.1	1.12		0.94					0.183
NCI-H2023	0.948	0.925	1.1	0.421	0.953	0.592	0.56	0.502	0.465	0.738	0.596	0.733	0.741	0.544	0.793	0.958	1.24	0.983	0.487
EBC-1	0.573	0.662	0.558	0.444	0.487					0.216	0.184	0.189	0.141	0.145	0.694	0.575	0.591	0.55	
NCI-H1755	0.929	0.949	0.966	0.906	0.677	0.292	0.449	0.457	0.223	0.808	0.822	0.813	0.795	0.608	0.991	0.943	1.04	0.932	0.316
SK-MES-1						0.398	0.398	0.358	0.334	1.01	0.973	0.94	0.798	0.757					0.279
NCI-H1299	1.02	0.998	0.958	0.938	0.827					0.905	0.911	0.845	0.845	0.713	1.02	1.01	1.02	0.999	
A549										0.833	0.793	0.734	0.504	0.268					
NCI-H1793						0.308	0.419	0.418	0.298										
NCI-H1623						0.619	0.501	0.602	0.709										0.21
NCI-H1703	0.376	0.281	0.256		0.236					0.565	0.611	0.641	0.577	0.71	0.502	0.334	0.351	0.366	
NCI-H2170						0.774	0.595	0.639	0.528	1.21	1.08	1.18	1.21	1.08					0.518
NCI-H1395						0.416	0.431	0.368	0.399										0.394
HCC-44	0.863	0.871	0.959	1.08	0.78					0.82	0.776	0.86	0.995	0.652	0.911	0.93	1	0.886	
NCI-H522						0.797	0.931	0.827	0.765										0.771
Calu-6	0.99	1.1	0.911	0.886	0.886					0.761	0.76	0.741	0.682	0.489	0.873	1.13	1.17	1.09	
LK-2						0.375		0.339	0.424	0.227	0.251	0.224		0.218					
